Test results from paper PMC2533715, “Suppressive Effects of Selected Food Phytochemicals on CD74 Expression in NCI-N87 Gastric Carcinoma Cells” (Journal of Clinical Biochemistry and Nutrition, 2008).
Read-outs that look alike come from different tables or passages of the source.

Legend:
Cell viability (MTT) = conditions: human
in vitro = conditions: human
CD74 = assay: Cell-based ELISA for constitutive CD74 expression; design: species or system human
H. pylori = conditions: cited from earlier work
[1] = system: NCI-N87 gastric carcinoma cells; assay: Cell viability (MTT); conditions: NCI-N87 cells, 48 h
[2] = NCI-N87 gastric carcinoma cells
[3] = 4 µM, 48 h, NCI-N87 cells; mean ± average deviation
[4] = NCI-N87 cells, 48 h; mean of duplicate experiments; unit printed in b25 only; read-out: IC50 (50% inhibitory concentration) for constitutive CD74 expression
[5] = 20 µM, 48 h, NCI-N87 cells; mean ± average deviation
[6] = 100 µM, 48 h, NCI-N87 cells; mean ± average deviation

| Structure (SMILES) | CC50 at 48 h (Cell viability (MTT)) | viability at 48 h, 4 µM (Cell viability (MTT); [2]) | viability at 48 h, 20 µM (Cell viability (MTT); [2]) | viability at 48 h, 100 µM (in vitro) | IR (%) inhibition rate of CD74 expression (CD74; [3]) | IC50 (CD74; [4]) | viability at 48 h, 100 µM (Cell viability (MTT); [2]) | IR (%) inhibition rate of CD74 expression (CD74; [5]) | IR (%) inhibition rate of CD74 expression (CD74; [6]) | IR (%) inhibition rate of CD74 expression (CD74; 100 µM, 48 h, NCI-N87 cells; mean ± average deviation; listed as ascorbic acid) | H. pylori colonization and subsequent inflammation (H. pylori; Mongolian gerbils) | CC50 at 48 h (Cell viability (MTT); [2]) | IR (%) inhibition rate of CD74 expression (CD74; 20 µM, 48 h, NCI-N87 cells; mean ± average deviation; listed as auraptene) | Suppression of CD74 expression (in words) (CD74; NCI-N87 cells, 48 h) | H. pylori colonization (H. pylori; in vivo) | CC50 at 48 h (in vitro) | IC50 (CD74; read-out: IC50 (50% inhibitory concentration) for constitutive CD74 expression; NCI-N87 cells, 48 h; mean of duplicate experiments; unit printed in b25 only) | Cytotoxicity (in words) [1] | IR (%) inhibition rate of CD74 expression (CD74; 20 µM, 48 h, NCI-N87 cells; mean ± average deviation; listed as (−)-catechin) |
| --- | --- | --- | --- | --- | --- | --- | --- | --- | --- | --- | --- | --- | --- | --- | --- | --- | --- | --- | --- |
| S=C=NCc1ccccc1 [BITC, benzyl isothiocyanate] | 44.3 µM | 96 ± 3.4% | 56 ± 7.9% | 6.1 ± 1.3% | –19 ± 0.6% | < 20 µM | – | – | – | – | – | – | – | – | – | – | – | – | – |
| O=C1O[C@H]([C@@H](O)CO)C(O)=C1O [Ascorbic acid] | > 100 µM | 97 ± 1.7% | 94 ± 0.3% | – | –12 ± 3.5% | > 100 µM | 86 ± 5.8% | 5.4 ± 3.8% | 6.8 ± 1.8% | did not suppress CD74 | reduced | – | – | – | – | – | – | – | – |
| C=CCC/C(=N/OS(=O)(=O)O)S[C@@H]1O[C@H](CO)[C@@H](O)[C@H](O)[C@H]1O [BUGLS, gluconapin] | – | 88 ± 6.9% | 80 ± 3.5% | – | –15 ± 0.0% | > 100 µM | 79 ± 5.6% | −19 ± 2.5% | 4.0 ± 1.0% | – | – | > 100 µM | – | – | – | – | – | – | – |
| Cn1c(=O)c2c(ncn2C)n(C)c1=O [Caffeine] | – | 100 ± 2.6% | 100 ± 2.2% | – | 10 ± 7.7% | > 100 µM | 87 ± 1.9% | 22 ± 6.9% | 41 ± 9.2% | – | – | – | – | – | – | – | – | – | – |
| C[C@@H]1O[C@@H](OC[C@H]2O[C@@H](Oc3c(-c4ccc(O)c(O)c4)oc4cc(O)cc(O)c4c3=O)[C@H](O)[C@@H](O)[C@@H]2O)[C@H](O)[C@H](O)[C@H]1O [Rutin] | > 100 µM | 97 ± 1.2% | 100 ± 1.1% | – | −4.3 ± 2.8% | > 100 µM | 80 ± 4.7% | −3.0 ± 0.0% | 11 ± 4.5% | – | – | – | – | – | – | – | – | – | – |
| C=C[C@H](OC(C)=O)c1ccc(OC(C)=O)cc1 [ACA, 1'-acetoxychavicol acetate] | – | 92 ± 3.4% | 20 ± 0.2% | – | 16 ± 1.6% | < 20 µM | 6.1 ± 0.3% | – | – | – | – | 25 µM | – | – | – | – | – | – | – |
| COc1cc(/C=C/C(=O)O)ccc1O [Ferulic acid] | > 100 µM | 96 ± 2.3% | 93 ± 0.7% | – | −5.1 ± 4.3% | > 100 µM | 82 ± 5.9% | 15 ± 5.8% | 20 ± 3.8% | – | – | – | – | – | – | – | – | – | – |
| CC(C)=CCC/C(C)=C/COc1ccc2ccc(=O)oc2c1 [Auraptene] | 59.2 µM | 96 ± 2.7% | 79 ± 4.5% | – | 2.4 ± 2.0% | 19.8 µM | 18 ± 0.4% | 50 ± 0.4% | – | – | – | – | 40–65% | significant activity | reduce | – | – | – | – |
| COc1cc(/C=C/C(=O)CC(=O)/C=C/c2ccc(O)c(OC)c2)ccc1O [Curucumin, curcumin] | – | 89 ± 1.1% | 12 ± 1.9% | – | 21 ± 8.0% | < 20 µM | 14 ± 6.8% | – | – | – | – | – | – | – | – | 44.3 µM | – | – | – |
| C=CCCN=C=S [BUITC, butenyl isothiocyanate] | 81.5 µM | 71 ± 5.8% | 73 ± 3.3% | – | –9.0 ± 0.4% | – | 44 ± 2.4% | 2.3 ± 0.8% | – | – | – | – | – | – | – | – | > 100 µM | – | – |
| Oc1cc(O)c2c(c1)O[C@@H](c1ccc(O)c(O)c1)[C@H](O)C2 [(−)-Catechin] | – | 97 ± 2.5% | 97 ± 3.3% | – | −6.4 ± 2.0% | 69.2 µM | 89 ± 5.9% | 40 ± 2.1% | 65 ± 0.8% | – | – | > 100 µM | – | suppressive only at a high concentration | – | – | – | Marginal cytotoxicity | 40–65% |
